Reference: US11957687B2 (REGENERON PHARMACEUTICALS, INC., priority 2019, dated 2024)

These compounds were tested against HSD17B13 (Homo sapiens (Human), UniProt Q7Z5P4) (assay: HSD17B13 enzymatic inhibition assay (150 nM or 50 nM HSD17B13)). Details: 50 nM HSD17B13; read-out: Inhibition of 50 nM of HSD17B13 IC50.
Assay type: biochemical

HSD17B13, sequence (Q7Z5P4 other isoform, or with tags, fused parts or gaps): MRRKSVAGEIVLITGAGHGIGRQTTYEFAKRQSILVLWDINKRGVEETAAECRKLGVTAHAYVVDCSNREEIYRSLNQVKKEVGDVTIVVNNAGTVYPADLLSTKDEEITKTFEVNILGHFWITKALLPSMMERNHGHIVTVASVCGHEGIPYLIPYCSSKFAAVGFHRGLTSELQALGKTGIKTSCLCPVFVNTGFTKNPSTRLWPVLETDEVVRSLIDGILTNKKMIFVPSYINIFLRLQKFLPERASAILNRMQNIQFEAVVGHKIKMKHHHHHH

| Compound | IC50 |
| --- | --- |
| O=C(NC1CCc2c(O)cccc21)c1ccc(C(F)(F)F)[nH]c1=O (stereo not drawn) [Compound 136, N-(4-hydroxy-2,3-dihydro-1H-inden-1-yl)-2-oxo-6-(trifluoromethyl)-1,2-dihydropyridine-3-carboxamide] | 1130 nM |
| O=C(NC1c2ccccc2COc2ccccc21)c1ccc(C(F)(F)F)[nH]c1=O (stereo not drawn) [Compound 137, N-(6,11-dihydrodibenzo[b,e]oxepin-11-yl)-2-oxo-6-(trifluoromethyl)-1,2-dihydropyridine-3-carboxamide] | 4190 nM |
| C=Cc1ccc2c(c1)Oc1cccc(C=C)c1C2NC(=O)c1ccc(C(F)(F)F)[nH]c1=O (stereo not drawn) [Compound 139, N-(1,6-divinyl-9H-xanthen-9-yl)-2-oxo-6-(trifluoromethyl)-1,2-dihydropyridine-3-carboxamide] | 510 nM |
| CCc1ccc2c(c1)Oc1cccc(CC)c1C2NC(=O)c1ccc(C(F)(F)F)[nH]c1=O (stereo not drawn) [Compound 142, N-(1,6-diethyl-9H-xanthen-9-yl)-2-oxo-6-(trifluoromethyl)-1,2-dihydropyridine-3-carboxamide] | 540 nM |
| CCc1ccc2c(c1)Oc1cc(CC)ccc1C2NC(=O)c1ccc(C(F)(F)F)[nH]c1=O [Compound 143, N-(3,6-diethyl-9H-xanthen-9-yl)-2-oxo-6-(trifluoromethyl)-1,2-dihydropyridine-3-carboxamide] | 90 nM |
| O=C(NC1c2ccc(CC(F)(F)F)cc2Oc2cc(CC(F)(F)F)ccc21)c1ccc(C(F)(F)F)[nH]c1=O [Compound 144, N-(3,6-bis(2,2,2-trifluoroethyl)-9H-xanthen-9-yl)-2-oxo-6-(trifluoromethyl)-1,2-dihydropyridine-3-carboxamide] | 310 nM |
| O=C(NC1c2ccc(C3CC3)cc2Oc2cc(C3CC3)ccc21)c1ccc(C(F)(F)F)[nH]c1=O [Compound 145, N-(3,6-dicyclopropyl-9H-xanthen-9-yl)-2-oxo-6-(trifluoromethyl)-1,2-dihydropyridine-3-carboxamide] | 210 nM |
| Cc1ccc2c(c1)Oc1cccc(C)c1C2NC(=O)c1ccc(C)[nH]c1=O (stereo not drawn) [Compound 147, N-(1,6-dimethyl-9H-xanthen-9-yl)-6-methyl-2-oxo-1,2-dihydropyridine-3-carboxamide] | > 10000 nM |
| Cc1ccc2c(c1)C(NC(=O)c1ccc(C(F)(F)F)[nH]c1=O)c1ccccc1O2 (stereo not drawn) [Compound 148, N-(2-methyl-9H-xanthen-9-yl)-2-oxo-6-(trifluoromethyl)-1,2-dihydropyridine-3-carboxamide] | 670 nM |
| Cc1ccc2c(c1)Oc1cc(C)ccc1C2NC(=O)c1ccc(C)[nH]c1=O [Compound 149, N-(3,6-dimethyl-9H-xanthen-9-yl)-6-methyl-2-oxo-1,2-dihydropyridine-3-carboxamide] | > 10000 nM |
| O=C(NC1c2ccccc2Oc2ccc(F)cc21)c1ccc(C(F)(F)F)[nH]c1=O (stereo not drawn) [Compound 150, N-(2-fluoro-9H-xanthen-9-yl)-2-oxo-6-(trifluoromethyl)-1,2-dihydropyridine-3-carboxamide] | 400 nM |
| O=C(NC1c2ccccc2Oc2cc(C3CCC3)ccc21)c1ccc(C(F)(F)F)[nH]c1=O (stereo not drawn) [Compound 151, N-(3-cyclobutyl-9H-xanthen-9-yl)-2-oxo-6-(trifluoromethyl)-1,2-dihydropyridine-3-carboxamide] | 290 nM |
| O=C(NC1c2ccccc2Oc2c(Cl)cccc21)c1ccc(C(F)(F)F)[nH]c1=O (stereo not drawn) [Compound 152, N-(4-chloro-9H-xanthen-9-yl)-2-oxo-6-(trifluoromethyl)-1,2-dihydropyridine-3-carboxamide] | 1030 nM |
| O=C(NC1c2cc(Cl)ccc2Oc2ccc(Cl)cc21)c1ccc(C(F)(F)F)[nH]c1=O [Compound 153, N-(2,7-dichloro-9H-xanthen-9-yl)-2-oxo-6-(trifluoromethyl)-1,2-dihydropyridine-3-carboxamide] | 1790 nM |
| N#Cc1ccc2c(c1)C(NC(=O)c1ccc(C(F)(F)F)[nH]c1=O)c1ccccc1O2 (stereo not drawn) [Compound 154, N-(2-cyano-9H-xanthen-9-yl)-2-oxo-6-(trifluoromethyl)-1,2-dihydropyridine-3-carboxamide] | 650 nM |
| C=Cc1ccc2c(c1)C(NC(=O)c1ccc(C(F)(F)F)[nH]c1=O)c1ccccc1O2 (stereo not drawn) [Compound 155, 2-oxo-6-(trifluoromethyl)-N-(2-vinyl-9H-xanthen-9-yl)-1,2-dihydropyridine-3-carboxamide] | 460 nM |
| O=C(NC1c2ccccc2Oc2cccc(F)c21)c1ccc(C(F)(F)F)[nH]c1=O (stereo not drawn) [Compound 156, N-(1-fluoro-9H-xanthen-9-yl)-2-oxo-6-(trifluoromethyl)-1,2-dihydropyridine-3-carboxamide] | 260 nM |
| Cc1cccc2c1C(NC(=O)c1ccc(C(F)(F)F)[nH]c1=O)c1ccccc1O2 (stereo not drawn) [Compound 157, N-(1-methyl-9H-xanthen-9-yl)-2-oxo-6-(trifluoromethyl)-1,2-dihydropyridine-3-carboxamide] | 850 nM |

| Compound | IC50 |
| --- | --- |
| Cc1ccc2c(c1)C(NC(=O)c1ccc(C(F)(F)F)[nH]c1=O)c1cc(C)ccc1O2 [Compound 158, N-(2,7-dimethyl-9H-xanthen-9-yl)-2-oxo-6-(trifluoromethyl)-1,2-dihydropyridine-3-carboxamide] | 360 nM |
| O=C(NC1c2ccccc2Oc2cccc(Cl)c21)c1ccc(C(F)(F)F)[nH]c1=O (stereo not drawn) [Compound 159, N-(1-chloro-9H-xanthen-9-yl)-2-oxo-6-(trifluoromethyl)-1,2-dihydropyridine-3-carboxamide] | 600 nM |
| CCc1ccc2c(c1)C(NC(=O)c1ccc(C(F)(F)F)[nH]c1=O)c1ccccc1O2 (stereo not drawn) [Compound 160, N-(2-ethyl-9H-xanthen-9-yl)-2-oxo-6-(trifluoromethyl)-1,2-dihydropyridine-3-carboxamide] | 180 nM |
| CCc1ccc2c(c1)Oc1ccccc1C2NC(=O)c1ccc(C(F)(F)F)[nH]c1=O (stereo not drawn) [Compound 162, N-(3-ethyl-9H-xanthen-9-yl)-2-oxo-6-(trifluoromethyl)-1,2-dihydropyridine-3-carboxamide] | 80 nM |
| CCc1cccc2c1C(NC(=O)c1ccc(C(F)(F)F)[nH]c1=O)c1ccccc1O2 (stereo not drawn) [Compound 163, N-(1-ethyl-9H-xanthen-9-yl)-2-oxo-6-(trifluoromethyl)-1,2-dihydropyridine-3-carboxamide] | 840 nM |
| Cc1ccc2c(c1)Oc1cccc(C)c1C2NC(=O)c1cc(C)c(C(F)(F)F)[nH]c1=O (stereo not drawn) [Compound 164, N-(1,6-dimethyl-9H-xanthen-9-yl)-5-methyl-2-oxo-6-(trifluoromethyl)-1,2-dihydropyridine-3-carboxamide] | 900 nM |
| Cc1cc(C(=O)NC2c3ccc(Cl)cc3Oc3cc(Cl)ccc32)c(=O)[nH]c1C(F)(F)F [Compound 165, N-(3,6-dichloro-9H-xanthen-9-yl)-5-methyl-2-oxo-6-(trifluoromethyl)-1,2-dihydropyridine-3-carboxamide] | 110 nM |
| Cc1ccc2c(c1)Oc1cc(C)ccc1C2NC(=O)c1cc(C)c(C(F)(F)F)[nH]c1=O [Compound 166, N-(3,6-dimethyl-9H-xanthen-9-yl)-5-methyl-2-oxo-6-(trifluoromethyl)-1,2-dihydropyridine-3-carboxamide] | 60 nM |
| CCc1cc(C(=O)NC2c3ccc(C)cc3Oc3cccc(C)c32)c(=O)[nH]c1C(F)(F)F (stereo not drawn) [Compound 167, N-(1,6-dimethyl-9H-xanthen-9-yl)-5-ethyl-2-oxo-6-(trifluoromethyl)-1,2-dihydropyridine-3-carboxamide] | 820 nM |
| C=Cc1cc(C(=O)NC2c3ccc(C)cc3Oc3cccc(C)c32)c(=O)[nH]c1C(F)(F)F (stereo not drawn) [Compound 168, N-(1,6-dimethyl-9H-xanthen-9-yl)-2-oxo-6-(trifluoromethyl)-5-vinyl-1,2-dihydropyridine-3-carboxamide] | 330 nM |
| CCc1cc(C(=O)NC2c3ccc(Cl)cc3Oc3cccc(Cl)c32)c(=O)[nH]c1C(F)(F)F (stereo not drawn) [Compound 169, N-(1,6-dichloro-9H-xanthen-9-yl)-5-ethyl-2-oxo-6-(trifluoromethyl)-1,2-dihydropyridine-3-carboxamide] | 780 nM |
| C=Cc1cc(C(=O)NC2c3ccc(Cl)cc3Oc3cccc(Cl)c32)c(=O)[nH]c1C(F)(F)F (stereo not drawn) [Compound 170, N-(1,6-dichloro-9H-xanthen-9-yl)-2-oxo-6-(trifluoromethyl)-5-vinyl-1,2-dihydropyridine-3-carboxamide] | 350 nM |
| C=Cc1cc(C(=O)NC2c3ccc(Cl)cc3Oc3cc(Cl)ccc32)c(=O)[nH]c1C(F)(F)F [Compound 171, N-(3,6-dichloro-9H-xanthen-9-yl)-2-oxo-6-(trifluoromethyl)-5-vinyl-1,2-dihydropyridine-3-carboxamide] | 100 nM |
| CCc1cc(C(=O)NC2c3ccc(Cl)cc3Oc3cc(Cl)ccc32)c(=O)[nH]c1C(F)(F)F [Compound 172, N-(3,6-dichloro-9H-xanthen-9-yl)-5-ethyl-2-oxo-6-(trifluoromethyl)-1,2-dihydropyridine-3-carboxamide] | 140 nM |
| C=CCc1cc(C(=O)NC2c3ccc(Cl)cc3Oc3cc(Cl)ccc32)c(=O)[nH]c1C(F)(F)F [Compound 173, 5-allyl-N-(3,6-dichloro-9H-xanthen-9-yl)-2-oxo-6-(trifluoromethyl)-1,2-dihydropyridine-3-carboxamide] | 30 nM |
| C=CCc1cc(C(=O)NC2c3ccc(Cl)cc3Oc3cccc(Cl)c32)c(=O)[nH]c1C(F)(F)F (stereo not drawn) [Compound 174, 5-allyl-N-(1,6-dichloro-9H-xanthen-9-yl)-2-oxo-6-(trifluoromethyl)-1,2-dihydropyridine-3-carboxamide] | 240 nM |
| Cc1ccc2c(c1)Oc1cccc(C)c1C2NC(=O)c1cc(-c2ccccc2)c(C(F)(F)F)[nH]c1=O (stereo not drawn) [Compound 175, N-(1,6-dimethyl-9H-xanthen-9-yl)-2-oxo-5-phenyl-6-(trifluoromethyl)-1,2-dihydropyridine-3-carboxamide] | 280 nM |
| CCCc1cc(C(=O)NC2c3ccc(Cl)cc3Oc3cccc(Cl)c32)c(=O)[nH]c1C(F)(F)F (stereo not drawn) [Compound 179, N-(1,6-dichloro-9H-xanthen-9-yl)-2-oxo-5-propyl-6-(trifluoromethyl)-1,2-dihydropyridine-3-carboxamide] | 400 nM |
